Source: ChEMBL document CHEMBL5291721, “A preclinical secondary pharmacology resource illuminates target-adverse drug reaction associations of marketed drugs” (Nat Commun, 2023)

How the values were obtained:
[1] = target: Receptor tyrosine-protein kinase erbB-2 (Homo sapiens, UniProt P04626); type: functional
[2] = target: T1, Glucocorticoid receptor (Homo sapiens, UniProt P04150); type: functional
T1 sequence (P04150 whole entry): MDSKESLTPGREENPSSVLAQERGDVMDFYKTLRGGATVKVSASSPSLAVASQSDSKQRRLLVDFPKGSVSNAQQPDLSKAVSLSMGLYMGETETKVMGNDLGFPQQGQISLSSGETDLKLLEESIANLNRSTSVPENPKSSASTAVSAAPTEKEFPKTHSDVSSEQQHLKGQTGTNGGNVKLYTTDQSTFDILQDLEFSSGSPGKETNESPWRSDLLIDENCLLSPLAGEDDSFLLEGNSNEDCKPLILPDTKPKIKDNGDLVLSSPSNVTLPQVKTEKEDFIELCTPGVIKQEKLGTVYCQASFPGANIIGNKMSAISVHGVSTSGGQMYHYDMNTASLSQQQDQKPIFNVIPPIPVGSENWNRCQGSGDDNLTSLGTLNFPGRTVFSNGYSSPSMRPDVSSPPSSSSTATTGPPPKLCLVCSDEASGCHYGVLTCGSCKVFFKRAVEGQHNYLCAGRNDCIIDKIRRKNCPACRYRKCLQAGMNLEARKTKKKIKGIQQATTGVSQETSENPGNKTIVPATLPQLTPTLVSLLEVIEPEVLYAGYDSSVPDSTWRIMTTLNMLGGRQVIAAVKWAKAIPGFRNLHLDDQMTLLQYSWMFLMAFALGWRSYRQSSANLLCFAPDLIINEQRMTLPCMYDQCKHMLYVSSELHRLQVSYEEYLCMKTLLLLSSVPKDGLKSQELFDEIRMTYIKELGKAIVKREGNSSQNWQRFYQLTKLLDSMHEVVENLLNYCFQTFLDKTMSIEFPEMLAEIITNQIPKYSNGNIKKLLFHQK

[3] = target: Gamma-aminobutyric acid receptor subunit alpha-1 (Rattus norvegicus, UniProt P62813)
Gamma-aminobutyric acid receptor subunit alpha-1, sequence (P62813 whole entry): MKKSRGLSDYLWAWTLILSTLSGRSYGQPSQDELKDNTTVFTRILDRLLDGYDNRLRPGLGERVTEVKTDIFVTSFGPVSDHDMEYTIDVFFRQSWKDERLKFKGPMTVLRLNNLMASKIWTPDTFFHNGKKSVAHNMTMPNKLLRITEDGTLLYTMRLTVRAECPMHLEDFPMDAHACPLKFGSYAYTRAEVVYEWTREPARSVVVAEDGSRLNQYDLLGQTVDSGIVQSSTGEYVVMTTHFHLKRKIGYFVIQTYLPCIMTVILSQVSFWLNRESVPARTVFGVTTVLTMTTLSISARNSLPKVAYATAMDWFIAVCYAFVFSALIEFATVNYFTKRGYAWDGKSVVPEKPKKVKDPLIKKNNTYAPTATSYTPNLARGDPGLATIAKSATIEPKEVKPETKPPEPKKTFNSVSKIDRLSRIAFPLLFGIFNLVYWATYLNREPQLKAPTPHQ

[4] = target: T2, Progesterone receptor (Homo sapiens, UniProt P06401)
T2 sequence (P06401 whole entry): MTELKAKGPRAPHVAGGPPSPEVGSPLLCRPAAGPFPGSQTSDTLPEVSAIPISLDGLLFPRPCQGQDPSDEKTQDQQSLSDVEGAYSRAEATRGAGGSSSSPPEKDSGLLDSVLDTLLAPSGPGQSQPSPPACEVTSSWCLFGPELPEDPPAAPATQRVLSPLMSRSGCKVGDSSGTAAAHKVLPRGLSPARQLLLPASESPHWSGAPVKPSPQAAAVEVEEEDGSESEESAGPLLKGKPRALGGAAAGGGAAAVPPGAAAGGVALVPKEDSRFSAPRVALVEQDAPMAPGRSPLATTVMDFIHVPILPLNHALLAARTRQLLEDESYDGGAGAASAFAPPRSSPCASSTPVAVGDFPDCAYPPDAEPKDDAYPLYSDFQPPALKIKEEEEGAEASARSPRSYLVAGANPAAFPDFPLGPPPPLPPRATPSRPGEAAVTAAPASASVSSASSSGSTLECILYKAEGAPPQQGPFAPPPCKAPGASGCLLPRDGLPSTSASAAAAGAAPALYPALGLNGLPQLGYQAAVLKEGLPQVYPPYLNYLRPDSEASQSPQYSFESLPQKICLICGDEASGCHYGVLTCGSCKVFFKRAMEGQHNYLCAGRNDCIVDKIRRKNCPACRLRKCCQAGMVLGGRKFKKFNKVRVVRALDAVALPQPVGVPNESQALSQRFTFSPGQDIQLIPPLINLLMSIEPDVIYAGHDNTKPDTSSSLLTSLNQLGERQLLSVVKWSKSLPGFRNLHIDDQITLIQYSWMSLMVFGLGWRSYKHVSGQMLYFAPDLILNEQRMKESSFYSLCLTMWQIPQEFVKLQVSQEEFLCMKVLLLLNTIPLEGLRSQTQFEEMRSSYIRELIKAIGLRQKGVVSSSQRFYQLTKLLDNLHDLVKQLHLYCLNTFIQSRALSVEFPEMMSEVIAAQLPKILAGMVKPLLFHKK
Note: assay procedure not described here.

Receptor tyrosine-protein kinase erbB-2, sequence (P04626 whole entry): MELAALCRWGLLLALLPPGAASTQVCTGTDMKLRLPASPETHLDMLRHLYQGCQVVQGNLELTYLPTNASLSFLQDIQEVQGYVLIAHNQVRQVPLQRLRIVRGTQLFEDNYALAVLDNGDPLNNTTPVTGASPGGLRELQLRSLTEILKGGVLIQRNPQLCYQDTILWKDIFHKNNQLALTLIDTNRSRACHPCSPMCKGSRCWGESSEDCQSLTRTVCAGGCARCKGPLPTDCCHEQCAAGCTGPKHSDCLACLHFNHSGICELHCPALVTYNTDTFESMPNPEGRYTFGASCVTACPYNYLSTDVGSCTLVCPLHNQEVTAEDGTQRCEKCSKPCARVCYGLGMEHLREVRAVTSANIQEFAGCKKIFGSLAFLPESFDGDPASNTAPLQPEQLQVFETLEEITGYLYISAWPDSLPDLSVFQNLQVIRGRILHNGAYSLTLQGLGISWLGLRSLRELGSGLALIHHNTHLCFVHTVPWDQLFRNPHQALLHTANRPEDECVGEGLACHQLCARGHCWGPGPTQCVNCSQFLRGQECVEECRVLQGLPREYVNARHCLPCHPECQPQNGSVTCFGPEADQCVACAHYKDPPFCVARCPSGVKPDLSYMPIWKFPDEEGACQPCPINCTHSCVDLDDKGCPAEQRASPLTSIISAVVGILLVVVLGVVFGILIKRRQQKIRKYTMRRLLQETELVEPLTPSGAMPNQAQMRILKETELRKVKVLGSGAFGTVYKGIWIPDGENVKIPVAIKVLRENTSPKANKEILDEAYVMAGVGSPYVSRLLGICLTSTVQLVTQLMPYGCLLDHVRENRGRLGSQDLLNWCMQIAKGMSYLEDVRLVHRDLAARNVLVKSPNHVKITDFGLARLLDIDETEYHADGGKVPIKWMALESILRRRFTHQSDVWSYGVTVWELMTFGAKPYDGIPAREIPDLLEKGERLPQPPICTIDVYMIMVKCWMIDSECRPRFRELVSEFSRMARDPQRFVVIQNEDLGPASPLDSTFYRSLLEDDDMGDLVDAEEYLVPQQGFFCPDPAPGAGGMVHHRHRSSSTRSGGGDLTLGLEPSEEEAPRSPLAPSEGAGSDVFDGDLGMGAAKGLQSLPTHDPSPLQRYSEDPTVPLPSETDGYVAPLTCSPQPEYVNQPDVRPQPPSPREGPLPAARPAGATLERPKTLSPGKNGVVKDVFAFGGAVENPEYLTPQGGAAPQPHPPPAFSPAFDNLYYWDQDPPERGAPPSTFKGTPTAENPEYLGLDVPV

SMILES: CN1CC2c3ccccc3Oc3ccc(Cl)cc3C2C1 (configuration not stated) [ASENAPINE]
- AC50 [1]: > 30 µM
- AC50 [2]: > 30 µM

SMILES: C[C@H](CCC(=O)O)[C@H]1CC[C@H]2[C@@H]3[C@H](O)C[C@@H]4C[C@H](O)CC[C@]4(C)[C@H]3CC[C@]12C [CHENODIOL]
- AC50 [1]: > 30 µM

SMILES: c1cnc2cc3c(cc2n1)[C@@H]1CNC[C@H]3C1 [VARENICLINE]
- AC50 [1]: > 30 µM

SMILES: C[C@H](Nc1ncnc2[nH]cnc12)c1cc2cccc(Cl)c2c(=O)n1-c1ccccc1 [DUVELISIB]
- AC50 [3]: > 30 µM
- AC50 [1]: > 30 µM
- AC50 [2]: > 30 µM

SMILES: Nc1c2c(nc3ccccc13)CCCC2O (configuration not stated) [VELNACRINE]
- AC50 [1]: > 30 µM
- AC50 [2]: > 30 µM

SMILES: CCC[C@@]1(CCc2ccccc2)CC(O)=C([C@H](CC)c2cccc(NS(=O)(=O)c3ccc(C(F)(F)F)cn3)c2)C(=O)O1
- AC50 [1]: > 30 µM
- AC50 [2]: > 30 µM

SMILES: CO[C@@H]1[C@@H](OC(N)=O)[C@@H](O)[C@H](Oc2ccc3c(O)c(NC(=O)c4ccc(O)c(CC=C(C)C)c4)c(=O)oc3c2C)OC1(C)C [NOVOBIOCIN]
- AC50 [1]: > 30 µM
- AC50 [2]: > 30 µM

SMILES: C[C@@H](O)[C@H]1C(=O)N2C(C(=O)O)=C(SCCN=CN)C[C@H]12 [IMIPENEM ANHYDROUS]
- AC50 [1]: > 300 µM
- AC50 [2]: > 300 µM

SMILES: NCC1(CC(=O)O)CCCCC1 [GABAPENTIN]
- AC50 [4]: > 30 µM
- AC50 [1]: > 30 µM
- AC50 [2]: > 30 µM

SMILES: O=C1[C@@H]2[C@H]3CC[C@H](C3)[C@@H]2C(=O)N1C[C@@H]1CCCC[C@H]1CN1CCN(c2nsc3ccccc23)CC1 [LURASIDONE]
- AC50 [1]: > 30 µM
- AC50 [2]: > 10 µM

SMILES: Cn1cnc2c(F)c(Nc3ccc(Br)cc3F)c(C(=O)NOCCO)cc21 [BINIMETINIB]
- AC50 [1]: > 30 µM
- AC50 [2]: > 30 µM
